According to patent publication US20110172296A1, “MODULATION OF TRANSFORMING GROWTH FACTOR-BETA 1 EXPRESSION” (priority 2010, published 2011):
“And” between values parts separate entries of the source, which are not always exact repeats. Identical values can stand only once. e = 2'-O-(2-methoxyethyl) (MOE); d = 2'-deoxy (DNA)

How the values were obtained:
murine TGF-beta1 = assay: Inhibition of murine TGF-beta1 expression (data not shown); design: species or system mouse
human TGF-beta1 mRNA [1] = assay: Dose-dependent antisense inhibition of human TGF-beta1 in HuVEC cells, Lipofectamine 2000, 0.3292-80 nM, comparison with oligos of U.S. Pat. No. 6,436,909 (Example 4); type: cell-based
Experimental: The dose-dependent antisense inhibition potential of these gapmers was compared with that of Oligo IDs 104992 and 1138498 from U.S. Pat. No. 6,436,909. Cells were plated at a density of 5,000 cells per well and transfected using Lipofectamine™ 2000 reagent with 0.3292 nM, 0.9877 nM, 2.963 nM, 8.8889 nM, 26.6667 nM, and 80 nM concentrations of antisense oligonucleotide for 4 hours, as specified in Table 4. After a recovery period of approximately 16 hours, RNA was isolated from the cells and TGF-beta1 mRNA levels were measured by quantitative real-time PCR. Human TGF-beta1 primer probe set RTS 2980 was used to measure mRNA levels. TGF-beta1 mRNA levels were adjusted according to total RNA content, as measured by RIBOGREEN®. Results are presented as percent inhibition of TGF-beta1, relative to untreated control cells. […] All the antisense oligonucleotides in Table 4 target human TGF-beta1 mRNA (SEQ ID NO: 1).

human TGF-beta1 mRNA [2] = assay: Dose-dependent confirmation of antisense inhibition of human TGF-beta1 in HuVEC cells after large-scale synthesis, Lipofectamine 2000, 0.007-15 nM (Example 5); type: cell-based; details: for percent inhibition of TGF-beta1: Lipofectamine 2000
Experimental: Cells were plated at a density of 5,000 cells per well and transfected using Lipofectamine™ 2000 reagent with 0.007 nM, 0.021 nM, 0.062 nM, 0.185 nM, 0.556 nM, 1.667 nM, 5 nM, and 15 nM concentrations of antisense oligonucleotide for 4 hours, as specified in Table 5. After a recovery period of approximately 16 hours, RNA was isolated from the cells and TGF-beta1 mRNA levels were measured by quantitative real-time PCR. Human TGF-beta1 primer probe set RTS 2980 was used to measure mRNA levels. TGF-beta1 mRNA levels were adjusted according to total RNA content, as measured by RIBOGREEN®. Results are presented as percent inhibition of TGF-beta1, relative to untreated control cells.

BALB/c mice [3] = assay: Tolerability in BALB/c mice: liver, kidney and spleen weights (Example 8); type: in vivo, mouse
Experimental: The mice were sacrificed 2 days after the last administration and liver, spleen and kidney weights were measured. Plasma transaminase levels were also evaluated.
The weights of liver, kidney and spleen of the mice were measured after 4 weeks and liver weights are presented in Table 10 as a percentage change compared to the corresponding weights in the PBS control. The percentage changes in kidney and spleen weight in the treated mice compared to the PBS control were negligible and are not shown.

BALB/c mice [4] = details: mouse, in vivo
BALB/c mice [5] = assay: Tolerability in BALB/c mice: plasma transaminases ALT and AST (Example 7); details: for aspartate transaminase levels: plasma
human TGF-beta1 mRNA [6] = assay: Dose-dependent antisense inhibition of human TGF-beta1 in HuVEC cells, Lipofectamine 2000, 0.9375-30 nM (Example 3); type: cell-based; details: Lipofectamine 2000
How it was run: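 HuVEC cells, 5,000/well, were transfected with Lipofectamine 2000 and 0.9375-30 nM antisense oligonucleotide for 4 h, then recovered about 16 h. TGF-beta1 mRNA was quantified by real-time PCR (primer probe set RTS 2980), normalised to RIBOGREEN total RNA, and expressed as percent inhibition versus untreated cells.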

human TGF-beta1 mRNA [7] = assay: Antisense inhibition of human TGF-beta1 mRNA in HuVEC cells, single 10 nM dose, Lipofectamine 2000 (Example 2); type: cell-based
How it was run: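 HuVEC cells (5,000/well) transfected with 10 nM 2-13-5 MOE gapmer (phosphorothioate, 5-methylcytosine) via Lipofectamine 2000 for 4 h, then recovered ~24 h. mRNA measured by qRT-PCR, normalized to RIBOGREEN total RNA; percent inhibition versus untreated cells.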

414036 (antisense GTGTCCTTAAATACAGCCCC; sugars from the 5' end e2 d13 e5, backbone and methylation of C not given here) [compound 414036]
murine TGF-beta1 expression (murine TGF-beta1): inhibits
percent inhibition of TGF-beta1 (human TGF-beta1 mRNA [1]; 0.3292 nM): 70%
percent inhibition of TGF-beta1 (human TGF-beta1 mRNA [1]; 0.9877 nM): 83%
percent inhibition of TGF-beta1 (human TGF-beta1 mRNA [1]; 2.963 nM): 91%
percent inhibition of TGF-beta1 (human TGF-beta1 mRNA [1]; 8.8889 nM): 93%
percent inhibition of TGF-beta1 (human TGF-beta1 mRNA [1]; 26.6667 nM): 92%
percent inhibition of TGF-beta1 (human TGF-beta1 mRNA [1]; 80.0 nM): 89%
percent inhibition of TGF-beta1 (human TGF-beta1 mRNA [2]; 0.007 nM): 5%
percent inhibition of TGF-beta1 (human TGF-beta1 mRNA [2]; 0.021 nM): 26%
percent inhibition of TGF-beta1 (human TGF-beta1 mRNA [2]; 0.062 nM): 41%
percent inhibition of TGF-beta1 (human TGF-beta1 mRNA [2]; 0.185 nM): 58%
percent inhibition of TGF-beta1 (human TGF-beta1 mRNA [2]; 0.556 nM): 73%
percent inhibition of TGF-beta1 (human TGF-beta1 mRNA [2]; 1.667 nM): 84%
percent inhibition of TGF-beta1 (human TGF-beta1 mRNA [2]; 5 nM): 91%
percent inhibition of TGF-beta1 (human TGF-beta1 mRNA [2]; 15 nM): 90%
IC50 (human TGF-beta1 mRNA [2]; Lipofectamine 2000, Example 5): 0.15 nM
Liver % Weight change relative to PBS control (BALB/c mice [3]; 25 mg/kg twice a week for 4 weeks): +17%
Liver % Weight change relative to PBS control (BALB/c mice [3]; 50 mg/kg twice a week for 4 weeks): +35%
increase in liver weight (BALB/c mice [3]; 25 or 50 mg/kg twice a week for 4 weeks, vs PBS control): ≤ 35%
tolerability compared to Oligo ID 105204 (BALB/c mice [4]): improved tolerability
alanine transaminase levels (BALB/c mice [5]; 25 mg/kg twice a week, Week 2): 70 IU/L
alanine transaminase levels (BALB/c mice [5]; 25 mg/kg twice a week, Week 4): 61 IU/L
aspartate transaminase levels (BALB/c mice [5]; 25 mg/kg twice a week, Week 2): 119 IU/L
aspartate transaminase levels (BALB/c mice [5]; 25 mg/kg twice a week, Week 4): 148 IU/L
alanine transaminase levels (BALB/c mice [5]; 50 mg/kg twice a week, Week 2): 99 IU/L
alanine transaminase levels (BALB/c mice [5]; 50 mg/kg twice a week, Week 4): 190 IU/L
aspartate transaminase levels (BALB/c mice [5]; 50 mg/kg twice a week, Week 2): 183 IU/L
aspartate transaminase levels (BALB/c mice [5]; 50 mg/kg twice a week, Week 4): 467 IU/L
increase in ALT/AST (BALB/c mice [5]; 25 or 50 mg/kg twice a week for four weeks): < 8 fold
percent inhibition of TGF-beta1 (human TGF-beta1 mRNA [6]; 0.9375 nM): 56%
percent inhibition of TGF-beta1 (human TGF-beta1 mRNA [6]; 1.875 nM): 75%
percent inhibition of TGF-beta1 (human TGF-beta1 mRNA [6]; 3.75 nM): 86%
percent inhibition of TGF-beta1 (human TGF-beta1 mRNA [6]; 7.5 nM): 93%
percent inhibition of TGF-beta1 (human TGF-beta1 mRNA [6]; 15 nM): 95%
percent inhibition of TGF-beta1 (human TGF-beta1 mRNA [6]; 30 nM): 93%
% inhibition (human TGF-beta1 mRNA [7]; 10 nM oligonucleotide, HuVEC, relative to untreated control cells, gapmers targeted to SEQ ID NO: 1): 87%
inhibition of a TGF-beta1 mRNA (human TGF-beta1 mRNA [7]; threshold lists of Oligo IDs, 10 nM): 60% and 65% and 70% and 75% and 80% and 85%
